Active and inactive are the calls of the source. The rule behind the calls is not given here.
Assays:
[1] = tested on: HL-60; experiment: Induction of apoptosis in human HL60 cells assessed as pyknotic nuclear fragments at 10 uM after 24 hrs in presence of Z-VAD-fmk; format: functional, cell-based
[2] = tested on: HL-60; experiment: Cytotoxicity against human HL60 cells after 16 hrs by MTT assay; format: functional, cell-based; details: HL-60, 16 h
[3] = tested on: PBMC; experiment: Cytotoxicity against human PBMC after 72 hrs by MTT assay; format: cell-based
[4] = tested on: PBMC; experiment: Induction of apoptosis in human PBMC assessed as mitochondrial membrane depolarization at 0.1 to 100 uM after 24 hrs; format: functional, cell-based
[5] = tested on: HL-60; experiment: Cytotoxicity against human HL60 cells after 24 hrs by MTT assay; format: functional, cell-based; details: HL-60, 24 h
[6] = tested on: HL-60; experiment: Induction of apoptosis in human HL60 cells assessed as mitochondrial membrane depolarization at 1.0 uM after 12 hrs by flow cytometry; format: functional
[7] = tested on: HL-60; experiment: Induction of apoptosis in human HL60 cells assessed as increase in sub-G0/G1 population at 1 uM after 24 hrs by flow cytometry; format: functional
[8] = tested on: Jurkat; experiment: Cytotoxicity against human Jurkat cells after 72 hrs by MTT assay; format: functional, cell-based
[9] = tested on: HL-60; experiment: Induction of apoptosis in human HL60 cells assessed as pyknotic nuclear fragments at 10 uM after 24 hrs; format: functional, cell-based
[10] = tested on: HL-60; experiment: Cytotoxicity against human HL60 cells after 6 hrs by MTT assay; format: functional, cell-based; details: HL-60, 6 h
[11] = tested on: HL-60; experiment: Cytotoxicity against human HL60 cells after 72 hrs by MTT assay; format: functional, cell-based; details: HL-60, 72 h
[12] = tested on: HL-60; experiment: Induction of apoptosis in human HL60 cells assessed as mitochondrial membrane depolarization at 1.0 uM after 24 hrs by flow cytometry; format: functional
[13] = tested on: HL-60; experiment: Induction of apoptosis in human HL60 cells assessed as increase in sub-G0/G1 population at 1 uM after 16 hrs by flow cytometry; format: functional
[14] = tested on: HL-60; experiment: Cytotoxicity against human HL60 cells assessed as LDH release after 72 hrs; format: functional, cell-based; details: HL-60, 72 h
[15] = tested on: HL-60; experiment: Induction of apoptosis in human HL60 cells assessed as activation of caspase 7 by Western blotting; format: functional, cell-based
[16] = tested on: HL-60; experiment: Induction of apoptosis in human HL60 cells assessed as activation of caspase 3 by Western blotting; format: functional, cell-based
[17] = tested on: HL-60; experiment: Stability in human HL60 cells assessed as formation of 10-beta-(p-bromophenoxy)-dihydroartemisinin tetrahydrofuran acetate at 10 uM after 24 hrs; format: ADME, cell-based; details: hl-60, 24 h
[18] = Stability in human PBMC assessed as percentage drug remaining at 10 uM after 24 hrs; format: ADME, cell-based; details: read-out: Activity
[19] = Stability in human HL60 cells assessed as percentage drug remaining at 10 uM after 24 hrs; format: ADME, cell-based; details: HL-60 cells, read-out: Activity
[20] = Stability in human HL60 cells assessed as percentage drug remaining at 10 uM after 16 hrs; format: ADME, cell-based; details: HL-60 cells, read-out: Activity
[21] = tested on: HL-60; experiment: Reversal of induction of apoptosis in human HL60 cells assessed as formation of sub-G0/G1 population at 10 uM after 24 hrs by flow cytometry in presence of Z-VAD-fmk; format: functional, cell-based
[22] = tested on: HL-60; experiment: Induction of apoptosis in human HL60 cells assessed as mitochondrial membrane depolarization at 10 uM after 24 hrs by flow cytometry in presence of Z-VAD-fmk; format: functional, cell-based
[23] = tested on: HL-60; experiment: Reversal of induction of apoptosis in human HL60 cells assessed as inhibition of caspase 3 activation at 1 uM after 24 hrs by Western blotting in presence of Z-VAD-fmk; format: functional, cell-based

## C[C@H]1[C@@H](Oc2ccc(F)cc2)O[C@@H]2O[C@]3(C)CC[C@H]4[C@H](C)CC[C@@H]1[C@@]24OO3
[1]
  Activity: inactive
[2]
  IC50: 6080 nM
[3]
  IC50: > 250000 nM
[4]
  Activity: inactive
[5]
  IC50: 510 nM
[6]
  Activity: 65.8%
[7]
  Activity: 62.9%
[8]
  IC50: 230 nM
[9]
  Activity: Active
[10]
  IC50: > 100000 nM
[11]
  IC50: 540 nM
[12]
  Activity: 29.8%
[13]
  Activity: 24.3%
[14]
  IC50: 760 nM

## C[C@H]1[C@@H](Oc2ccc(F)cc2)O[C@@H]2O[C@]3(C)CC[C@H]4[C@H](C)CC[C@@H]1[C@@]24O3
[15]
  Activity: inactive
[2]
  IC50: 3780 nM
[3]
  IC50: > 250000 nM
[5]
  IC50: 460 nM
[8]
  IC50: 30700 nM
[16]
  Activity: inactive
[10]
  IC50: > 100000 nM
[11]
  IC50: 25500 nM
[14]
  IC50: 32400 nM

## COc1cccc2c1C(=O)c1c(O)c3c(c(O)c1C2=O)C[C@@](O)(C(=O)CO)C[C@@H]3O[C@H]1C[C@H](N)[C@H](O)[C@H](C)O1 [DOXORUBICIN]
[8]
  IC50: 90 nM

## C[C@H]1[C@@H](Oc2ccc(Br)cc2)O[C@@H]2O[C@]3(C)CC[C@H]4[C@H](C)CC[C@@H]1[C@@]24OO3
[3]
  IC50: > 250000 nM
[17]
  Activity: 7%
[7]
  Activity: 60%
[8]
  IC50: 340 nM
[18]
  remaining at 24 h, 10 µM: 64%
[19]
  remaining at 24 h, 10 µM: 19%
[11]
  IC50: 120 nM
[20]
  remaining at 16 h, 10 µM: 37%
[14]
  IC50: 730 nM

## C[C@H]1[C@@H](O)O[C@@H]2O[C@@]3(C)CC[C@H]4[C@H](C)CC[C@@H]1[C@@]24OO3 [ARTENIMOL]
[1]
  Activity: inactive
[3]
  IC50: > 250000 nM
[21]
  Activity: Active
[22]
  Activity: Active
[23]
  Activity: Active
[7]
  Activity: 60%
[8]
  IC50: 650 nM
[9]
  Activity: Active
[14]
  IC50: 1560 nM

Source: ChEMBL document CHEMBL1156435, “Evidence for the involvement of carbon-centered radicals in the induction of apoptotic cell death by artemisinin compounds” (J Biol Chem, 2007)
